Inhibition data for two compounds are collected here from PMC6171417, “Carbonic anhydrase inhibition with a series of novel benzenesulfonamide-triazole conjugates” (Journal of Enzyme Inhibition and Medicinal Chemistry, 2018).

Broadly, the inhibition is the percentage by which the read-out fell short of the control. Low values mean a response near the control, high ones a response far below the control.

Holding throughout (assay): cells
What all share (set-up): species or system NCI human tumour cell line panel; NCI one-dose anti-proliferative screen, human tumour cell line panel, growth inhibition percent (GI%)

For assay [1], the system named is HOP-92. As to conditions: Homo sapiens, HOP-92; growth inhibition (GI%), single dose. The protocol:
(§1) Ten of the newly synthesised 1,2,3-triazolo benzenesulfonamide derivatives were selected by NCI (Bethesda, MD) for evaluating their anti-proliferative activity. The selected compounds were subjected to a primary in vitro one-dose ([…]) anti-proliferative assay against 57 human tumour cell lines following the previously reported method[30] and their obtained growth inhibition percent (GI%) are presented in Table 2. A subset of ten triazolo-benzenesulfonamides (3, 5, 6, 7, 9, 11, 16–18, and 20) were selected and subjected to an in vitro anti-proliferative screening against a panel of 57 cancer cell lines at NCI at an initial high dose ([…]). The human cell lines used were derived from nine cancer types: leukaemia, lung, colon, CNS, melanoma, ovarian, renal, prostate and breast cancers.

Assay [2] relates to UACC-257. The following applies: Homo sapiens, UACC-257; growth inhibition (GI%), single dose. The protocol: as §1
In assay [3] the test system is SK-OV-3. As to conditions: Homo sapiens, SK-OV-3; growth inhibition (GI%), single dose. The protocol: as §1
The subject of assay [4] is HL-60(TB). The following applies: Homo sapiens, HL-60; growth inhibition (GI%), single dose. The protocol: as §1
The subject of assay [5] is RPMI-8226. As to conditions: Homo sapiens, RPMI-8226; growth inhibition (GI%), single dose. The protocol: as §1
Assay [6] deals with SNB-19. The following applies: Homo sapiens, SNB-19; growth inhibition (GI%), single dose. The protocol: as §1
Assay [7] concerns A549/ATCC. The following applies: Homo sapiens, A549; growth inhibition (GI%), single dose. The protocol:
as §1

The test system of assay [8] is HCT-116. As to conditions: Homo sapiens, HCT-116; growth inhibition (GI%), single dose. The protocol: as §1
For assay [9], the system named is OVCAR-8. The following applies: Homo sapiens, OVCAR-8; growth inhibition (GI%), single dose. The protocol:
as §1

The subject of assay [10] is MOLT-4. The following applies: Homo sapiens, MOLT-4; growth inhibition (GI%), single dose. The protocol:
as §1

Assay [11] relates to SNB-75. The following applies: Homo sapiens, SNB-75; growth inhibition (GI%), single dose. The protocol: as §1
Assay [12] has as its system UACC-62. The following applies: Homo sapiens, UACC-62; growth inhibition (GI%), single dose. The protocol: as §1
For assay [13], the system named is CCRF-CEM. The following applies: Homo sapiens, CCRF-CEM; growth inhibition (GI%), single dose. The protocol:
as §1

Assay [14] relates to HT29. The following applies: Homo sapiens, HT-29; growth inhibition (GI%), single dose. The protocol:
as §1

In assay [15] the test system is A498. The following applies: Homo sapiens, A498; growth inhibition (GI%), single dose. The protocol:
as §1

In assay [16] the test system is NCI-H23. As to conditions: Homo sapiens, NCI-H23; growth inhibition (GI%), single dose. The protocol: as §1
In assay [17] the test system is SR. The following applies: Homo sapiens, SR; growth inhibition (GI%), single dose. The protocol: as §1
Assay [18] relates to HS 578T. The following applies: Homo sapiens, Hs-578T; growth inhibition (GI%), single dose. The protocol: as §1
For assay [19], the system named is UO-31. As to conditions: Homo sapiens, UO-31; growth inhibition (GI%), single dose. The protocol: as §1
The subject of assay [20] is MCF7. As to conditions: Homo sapiens, MCF7; growth inhibition (GI%), single dose. The protocol:
as §1

The structures appear in SMILES notation.

Regarding `N#Cc1c(-c2ccc(Cl)cc2)nc2c(nnn2-c2ccc(S(N)(=O)=O)cc2)c1N` [compound 16, 4-(7-amino-5-(4-chlorophenyl)-6-cyano-3H-[1,2,3]triazolo[4,5-b]pyridin-3-yl)benzenesulfonamide], the inhibition at 10 µM in assay [1] is 35.4%; in [2] it was 6.9%; in [3], 9.7%; in assay [4] it was 5.5%; in assay [5], 8.4%; in assay [6], 3.4%. Moreover, the inhibition at 10 µM was 8.6% in assay [7]; 4.6% in [8]; 3.8% in assay [9]; 17.6% in assay [10]; 20% in assay [11]; 15.5% in assay [12]. Besides, the inhibition at 10 µM in assay [13] came to 16.4%; in assay [14], 1.2%; in assay [15], 17.6%; in assay [16], 11.2%; in [17], 16.8%; in assay [18] it was 12.1%. The inhibition at 10 µM was determined as 25% in assay [19] and 13.6% in [20].
In the case of `CN(C)c1ccc(-c2nc3c(nnn3-c3ccc(S(N)(=O)=O)cc3)c(N)c2C#N)cc1` [compound 17, 4-(7-amino-6-cyano-5-(4-(dimethylamino)phenyl)-3H-[1,2,3]triazolo[4,5-b]pyridin-3-yl)benzenesulfonamide], the inhibition at 10 µM turned out to be 18.5% in assay [1]; 8.4% in assay [2]; 12.3% in [3]; 12.5% in [4]; 12.5% in assay [5]; 0.8% in assay [6]. Moreover, the inhibition at 10 µM was 16.3% in [7]; 3.6% in [8]; 11.4% in assay [9]; 2.3% in assay [10]; 21.6% in assay [11]; 11.6% in assay [12]. The inhibition at 10 µM in [13] is 11.4%; in assay [14], 3.3%; in [15] it was 1.8%; in assay [16], 9.8%; in assay [17], 3.2%; in [18] it was 2.9%. In addition, the inhibition at 10 µM in [19] worked out at 29.9%; in assay [20] it was 7.3%.
